Test results reported in ChEMBL document CHEMBL1201862, “PubChem BioAssay data set” (2004).
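Five concentrations, 48 hours, 96-well plates. The concentration for 50% growth inhibition is given as GI50.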 Active and inactive are the calls of the source. No stated cut-off is given here; in the data, active = GI50 up to about 1.1 µM and inactive = higher.

Tests used:
Assay in all cases: inhibition of tumour cell growth, NCI panel, 48 h
CCRF-CEM = test system: CCRF-CEM
NCI-H23 = test system: NCI-H23
KM12 = test system: KM12
IGROV-1 = test system: IGROV-1
OVCAR-5 = test system: OVCAR-5
SR = test system: SR
SN12C = test system: SN12C
SF-268 = test system: SF-268
M14 = test system: M14
LOX IMVI = test system: LOX IMVI
NCI-H522 = test system: NCI-H522
OVCAR-8 = test system: OVCAR-8
A549 = test system: A549
NCI-H226 = test system: NCI-H226
DLD-1 = test system: DLD-1
A498 = test system: A498
OVCAR-4 = test system: OVCAR-4
HCT-116 = test system: HCT-116
NCI/ADR-RES = test system: NCI/ADR-RES
Hs-578T = test system: Hs-578T

Measured: GI50

O=C(NC1CCCCC1)NS(=O)(=O)c1ccc2c(c1)CCC2 [GLYHEXAMIDE]
inactive: CCRF-CEM > 100 µM | NCI-H23 > 100 µM | KM12 > 100 µM | IGROV-1 > 100 µM | OVCAR-5 > 100 µM | SR > 100 µM | SN12C > 100 µM | SF-268 > 100 µM | M14 > 100 µM | LOX IMVI > 100 µM | NCI-H522 > 100 µM | OVCAR-8 > 100 µM | A549 > 100 µM | NCI-H226 > 100 µM | DLD-1 > 100 µM

O=S(O)CCCSSCCCCSSCCCS(=O)O
inactive: A498 > 100 µM | CCRF-CEM > 100 µM | NCI-H23 > 100 µM | KM12 > 100 µM | IGROV-1 > 100 µM | OVCAR-5 > 100 µM | OVCAR-4 > 100 µM | SN12C > 100 µM | SF-268 > 100 µM | M14 > 100 µM | LOX IMVI > 100 µM | NCI-H522 > 100 µM | OVCAR-8 > 100 µM | A549 > 100 µM | DLD-1 > 100 µM | HCT-116 > 100 µM

O=c1/c(=C/c2ccc3c(c2)OCO3)sc2nnc(Cc3ccccc3)n12
inactive: A498 > 100 µM | CCRF-CEM 81.5 µM | NCI-H23 > 100 µM | KM12 > 100 µM | IGROV-1 > 100 µM | OVCAR-5 > 100 µM | OVCAR-4 > 100 µM | SN12C > 100 µM | SF-268 > 100 µM | M14 > 100 µM | LOX IMVI > 100 µM | NCI-H522 92.3 µM | OVCAR-8 > 100 µM | A549 > 100 µM | NCI-H226 > 100 µM | DLD-1 > 100 µM | HCT-116 > 100 µM

CCCCCCCCCCCCC(SCCNC(=O)CCNC(=O)C(O)C(C)(C)COP(=O)(O)OP(=O)(O)OCC1OC(n2cnc3c(N)ncnc32)C(O)C1OP(=O)(O)O)C(=O)NCC(N)=O (stereo not given)
inactive: A498 > 100 µM | CCRF-CEM > 100 µM | NCI-H23 > 100 µM | KM12 > 100 µM | IGROV-1 > 100 µM | OVCAR-5 > 100 µM | OVCAR-4 > 100 µM | SN12C 40.1 µM | SF-268 > 100 µM | M14 > 100 µM | LOX IMVI > 100 µM | NCI-H522 69.2 µM | OVCAR-8 > 100 µM | A549 > 100 µM | NCI-H226 79.6 µM | DLD-1 > 100 µM | HCT-116 41.3 µM

C1=NN(Cc2ccccc2)C(N(Cc2ccccc2)Cc2ccccc2)N1 (stereo not given)
inactive: A498 17.7 µM | CCRF-CEM 12.2 µM | NCI-H23 16.9 µM | KM12 16.3 µM | IGROV-1 14.5 µM | OVCAR-5 13 µM | OVCAR-4 15.8 µM | SN12C 17 µM | SF-268 21.3 µM | M14 11 µM | LOX IMVI 15.3 µM | NCI-H522 15.7 µM | OVCAR-8 23.9 µM | A549 16.3 µM | NCI-H226 18.5 µM | DLD-1 21.1 µM | HCT-116 9.31 µM

Oc1ccc2c(c1)CC[N+]1=C2CCC2CCCC21 (stereo not given) [QUINDONIUM BROMIDE]
inactive: NCI-H23 > 100 µM | IGROV-1 > 100 µM | OVCAR-5 > 100 µM | OVCAR-4 > 100 µM | SN12C > 100 µM | SF-268 > 100 µM | M14 > 100 µM | LOX IMVI > 100 µM | OVCAR-8 > 100 µM | A549 > 100 µM | NCI-H226 > 100 µM | DLD-1 > 100 µM | HCT-116 > 100 µM

N#CCCN(CCC#N)c1ccc(/C=N\c2nc(-c3ccccc3)cs2)cc1
inactive: A498 > 100 µM | NCI-H23 > 100 µM | IGROV-1 > 100 µM | OVCAR-5 > 100 µM | OVCAR-4 63.4 µM | SN12C > 100 µM | SF-268 > 100 µM | M14 > 100 µM | LOX IMVI > 100 µM | NCI-H522 49.3 µM | OVCAR-8 > 100 µM | A549 > 100 µM | NCI-H226 > 100 µM | DLD-1 > 100 µM | HCT-116 > 100 µM

COC(=O)C1(C)C=C(Nc2ccccc2)C(=O)N1c1ccccc1 (stereo not given)
inactive: CCRF-CEM > 100 µM | NCI-H23 > 100 µM | KM12 > 100 µM | IGROV-1 > 100 µM | OVCAR-5 > 100 µM | OVCAR-4 > 100 µM | SN12C > 100 µM | SF-268 > 100 µM | M14 > 100 µM | LOX IMVI > 100 µM | NCI-H522 > 100 µM | OVCAR-8 > 100 µM | A549 > 100 µM | NCI-H226 > 100 µM | DLD-1 > 100 µM | HCT-116 > 100 µM

O=C(N/C(=C\c1ccc(Br)cc1)c1nc2ccccc2s1)c1ccccc1
inactive: A498 90.8 µM | CCRF-CEM 21.5 µM | NCI-H23 25.5 µM | KM12 > 100 µM | IGROV-1 75.2 µM | OVCAR-5 > 100 µM | OVCAR-4 30.8 µM | SN12C > 100 µM | SF-268 36.2 µM | M14 > 100 µM | LOX IMVI 65.2 µM | NCI-H522 32 µM | OVCAR-8 89.9 µM | A549 61.4 µM | NCI-H226 > 100 µM | DLD-1 46.9 µM | HCT-116 53 µM

COC(=O)[C@H]1CC(=O)C=C2CCCC21 (stereo not given in full)
inactive: A498 > 100 µM | CCRF-CEM > 100 µM | NCI-H23 > 100 µM | KM12 > 100 µM | IGROV-1 > 100 µM | OVCAR-4 > 100 µM | SN12C > 100 µM | SF-268 > 100 µM | M14 > 100 µM | LOX IMVI > 100 µM | NCI-H522 > 100 µM | OVCAR-8 > 100 µM | A549 > 100 µM | DLD-1 > 100 µM | HCT-116 > 100 µM

CNC(=O)OCCN1c2ccccc2Sc2ccccc21
inactive: A498 57.5 µM | CCRF-CEM > 100 µM | NCI-H23 > 100 µM | KM12 > 100 µM | IGROV-1 42.1 µM | OVCAR-5 > 100 µM | SR > 100 µM | OVCAR-4 > 100 µM | NCI/ADR-RES > 100 µM | SN12C > 100 µM | SF-268 > 100 µM | M14 > 100 µM | LOX IMVI 91.6 µM | Hs-578T > 100 µM | NCI-H522 > 100 µM | OVCAR-8 > 100 µM | A549 87.1 µM | NCI-H226 47.9 µM | HCT-116 74 µM

COc1cc(O)c(C(=O)CC(C)=O)c(OC)c1
inactive: CCRF-CEM > 100 µM | NCI-H23 > 100 µM | KM12 > 100 µM | IGROV-1 > 100 µM | OVCAR-5 > 100 µM | OVCAR-4 > 100 µM | SN12C > 100 µM | SF-268 > 100 µM | M14 > 100 µM | LOX IMVI > 100 µM | NCI-H522 > 100 µM | OVCAR-8 > 100 µM | A549 > 100 µM | NCI-H226 > 100 µM | DLD-1 > 100 µM | HCT-116 > 100 µM

COc1ccccc1-c1cc(=O)c2ccccc2[nH]1
inactive: CCRF-CEM 66.7 µM | NCI-H23 > 100 µM | KM12 63.7 µM | IGROV-1 99.8 µM | SR 55.1 µM | SN12C > 100 µM | SF-268 > 100 µM | M14 99.8 µM | LOX IMVI > 100 µM | NCI-H522 33.9 µM | OVCAR-8 > 100 µM | A549 54.3 µM | NCI-H226 70.1 µM | DLD-1 > 100 µM | HCT-116 > 100 µM

O=[N+]([O-])c1cccc(Nc2nc(Cl)nc(Cl)n2)c1
inactive: CCRF-CEM > 100 µM | NCI-H23 > 100 µM | KM12 > 100 µM | OVCAR-5 > 100 µM | SR > 100 µM | OVCAR-4 34.4 µM | SN12C > 100 µM | SF-268 > 100 µM | M14 > 100 µM | LOX IMVI > 100 µM | NCI-H522 > 100 µM | OVCAR-8 > 100 µM | A549 > 100 µM | NCI-H226 > 100 µM | DLD-1 > 100 µM | HCT-116 > 100 µM

Nc1nc(Cl)cc(Oc2ccc(Cl)cc2)n1
inactive: A498 > 47.5 µM | CCRF-CEM > 77.6 µM | NCI-H23 29.5 µM | KM12 > 100 µM | IGROV-1 > 100 µM | OVCAR-5 > 56.1 µM | SR > 80.4 µM | OVCAR-4 > 53.2 µM | NCI/ADR-RES > 70.3 µM | SN12C > 51.9 µM | SF-268 > 54.8 µM | M14 > 57 µM | LOX IMVI > 48.3 µM | Hs-578T > 53.7 µM | NCI-H522 22.6 µM | OVCAR-8 > 73.6 µM | A549 > 100 µM | NCI-H226 > 100 µM | HCT-116 > 57.9 µM

O=c1ccc2ccc(O)c3c4c(O)ccc5ccc(=O)c(c1c23)c54
inactive: NCI-H23 1.66 µM | KM12 1.24 µM | IGROV-1 1.82 µM | SN12C 2.08 µM | M14 1.6 µM | LOX IMVI 1.18 µM | NCI-H522 1.45 µM | OVCAR-8 1.46 µM | A549 2.95 µM | NCI-H226 2.04 µM | DLD-1 1.64 µM | HCT-116 1.43 µM
active: CCRF-CEM 0.71 µM

O=C(/N=S(/NC(=O)c1ccccc1)C(Cl)(Cl)Cl)c1ccccc1 (stereo not given)
inactive: A498 27 µM | CCRF-CEM 2.7 µM | NCI-H23 12.4 µM | KM12 > 65 µM | IGROV-1 8.47 µM | OVCAR-5 22.9 µM | SR 17.1 µM | OVCAR-4 17.4 µM | NCI/ADR-RES 15.5 µM | SN12C 24.7 µM | SF-268 50.2 µM | M14 10.5 µM | LOX IMVI 10.6 µM | Hs-578T 40.6 µM | NCI-H522 30.3 µM | OVCAR-8 15.5 µM | A549 > 56.9 µM | NCI-H226 25.6 µM | HCT-116 15.5 µM
